Results published in ChEMBL document CHEMBL1146669, “The development of potent non-peptidic PTP-1B inhibitors” (Bioorg Med Chem Lett, 2004).
Several values for one entry are separate records, joined by “and”; a condition that tells them apart may be missing. Identical values can stand only once.

Key:
[1] = biological target: T1, Receptor-type tyrosine-protein phosphatase C (Homo sapiens, UniProt P08575); assay: In vitro inhibitory activity against CD45 protein-tyrosine phosphatase
T1 sequence (P08575 whole entry): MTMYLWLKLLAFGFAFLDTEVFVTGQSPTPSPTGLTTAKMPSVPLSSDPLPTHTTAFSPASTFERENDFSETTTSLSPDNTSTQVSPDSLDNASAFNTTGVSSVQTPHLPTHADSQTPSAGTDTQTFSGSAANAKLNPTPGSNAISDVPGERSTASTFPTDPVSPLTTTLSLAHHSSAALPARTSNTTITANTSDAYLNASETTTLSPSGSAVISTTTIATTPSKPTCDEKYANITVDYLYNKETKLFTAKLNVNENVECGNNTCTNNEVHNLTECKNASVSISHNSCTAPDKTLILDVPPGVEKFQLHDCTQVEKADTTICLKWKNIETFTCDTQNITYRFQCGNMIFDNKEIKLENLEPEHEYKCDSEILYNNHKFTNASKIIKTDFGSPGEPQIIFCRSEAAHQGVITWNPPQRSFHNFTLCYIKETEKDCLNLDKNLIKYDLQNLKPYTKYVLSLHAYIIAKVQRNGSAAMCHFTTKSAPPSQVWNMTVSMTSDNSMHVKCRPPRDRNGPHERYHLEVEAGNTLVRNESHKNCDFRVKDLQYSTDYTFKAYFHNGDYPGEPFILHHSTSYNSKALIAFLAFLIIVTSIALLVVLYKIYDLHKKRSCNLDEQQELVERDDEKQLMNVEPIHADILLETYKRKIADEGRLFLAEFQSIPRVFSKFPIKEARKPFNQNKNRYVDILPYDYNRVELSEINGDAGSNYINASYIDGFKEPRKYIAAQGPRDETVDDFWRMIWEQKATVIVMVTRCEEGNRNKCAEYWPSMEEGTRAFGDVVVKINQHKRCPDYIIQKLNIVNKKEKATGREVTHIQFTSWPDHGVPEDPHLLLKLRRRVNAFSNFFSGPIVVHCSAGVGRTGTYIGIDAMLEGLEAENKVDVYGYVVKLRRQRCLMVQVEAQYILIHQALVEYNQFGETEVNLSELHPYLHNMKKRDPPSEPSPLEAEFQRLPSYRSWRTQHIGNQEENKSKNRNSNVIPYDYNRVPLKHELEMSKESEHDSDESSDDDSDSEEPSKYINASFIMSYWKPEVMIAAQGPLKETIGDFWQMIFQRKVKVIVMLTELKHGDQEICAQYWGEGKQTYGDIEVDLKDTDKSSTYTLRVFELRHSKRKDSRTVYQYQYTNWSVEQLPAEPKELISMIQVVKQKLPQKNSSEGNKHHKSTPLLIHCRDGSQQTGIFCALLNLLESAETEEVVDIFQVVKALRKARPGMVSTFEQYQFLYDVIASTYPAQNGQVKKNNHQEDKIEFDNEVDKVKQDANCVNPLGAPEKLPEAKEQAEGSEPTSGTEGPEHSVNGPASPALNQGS

[2] = biological target: T2, Tyrosine-protein phosphatase non-receptor type 1 (Homo sapiens, UniProt P18031); assay: In vitro inhibitory activity against protein tyrosine phosphatase 1B (PTP1B) was determined in fluorescein diphosphate (FDP) assay
T2 sequence (P18031 whole entry): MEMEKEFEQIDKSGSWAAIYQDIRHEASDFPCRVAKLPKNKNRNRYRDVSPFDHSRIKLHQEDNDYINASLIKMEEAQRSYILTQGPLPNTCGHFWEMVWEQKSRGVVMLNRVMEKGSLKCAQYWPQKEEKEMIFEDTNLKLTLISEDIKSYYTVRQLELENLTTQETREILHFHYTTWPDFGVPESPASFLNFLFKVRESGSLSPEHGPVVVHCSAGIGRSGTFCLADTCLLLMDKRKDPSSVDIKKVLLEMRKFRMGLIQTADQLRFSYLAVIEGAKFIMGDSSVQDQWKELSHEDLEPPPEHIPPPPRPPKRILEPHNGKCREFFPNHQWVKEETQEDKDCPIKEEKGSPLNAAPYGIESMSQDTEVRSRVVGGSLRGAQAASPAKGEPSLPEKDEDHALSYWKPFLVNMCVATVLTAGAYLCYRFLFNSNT

[3] = biological target: T2, Tyrosine-protein phosphatase non-receptor type 1; assay: In vitro inhibitory activity against Protein tyrosine phosphatase 1B (PTP1B) over-expressed in intact Sf9 cell assay
[4] = Oral bioavailability in rat; type: ADME, organism-based; settings: in vivo
[5] = Maximal concentration in rat was determined; type: ADME, organism-based; settings: in vivo
[6] = In vitro inhibitory activity against Protein tyrosine phosphatase 1B (PTP1B) over-expressed in intact Sf9 cell assay; NA denotes not active
[7] = Half life in ob/ob mice; type: ADME, organism-based; settings: mouse, in vivo

SMILES	IC50 [1] [µM]	IC50 [2]	IC50 [3]	bioavailability [4] [%]	Cmax [5] [µM]	IC50 [6]	half-life [7] [min]
O=C(OCc1ccccc1)C(Cc1ccc(C(F)(F)P(=O)(O)O)cc1)(Cc1ccc(C(F)(F)P(=O)(O)O)cc1)C(=O)OCc1ccccc1	19	0.06 µM	0.54 µM				
CC(C)OC(=O)C(Cc1ccc(C(F)(F)P(=O)(O)O)cc1)(Cc1ccc(C(F)(F)P(=O)(O)O)cc1)C(=O)OC(C)C	> 50	0.11 µM	1.65 µM				
O=C(OCc1ccccc1)C(Cc1ccc(C(F)(F)C(=O)O)cc1)(Cc1ccc(C(F)(F)P(=O)(O)O)cc1)C(=O)OCc1ccccc1	> 50	0.04 µM	1.9 µM				
O=C(c1ccccc1)C(Cc1ccc(C(F)(F)P(=O)(O)O)cc1)c1ccccc1 (configuration not stated)	> 50	2 µM	16 µM				
O=C(c1ccccc1)C(Cc1ccc(C(F)(F)P(=O)(O)O)c(Cl)c1)c1ccccc1 (configuration not stated)	> 50	0.36 µM	2.4 µM				
COC(=O)C(Cc1ccc(C(F)(F)P(=O)(O)O)cc1)(Cc1ccc(C(F)(F)P(=O)(O)O)cc1)C(=O)O	> 50	0.39 µM	3.8 µM				
O=C(c1ccccc1)C(C/C=C/c1ccccc1)(Cc1ccc(C(F)(F)P(=O)(O)O)cc1)c1ccccc1 (configuration not stated)	5.5	0.19 µM	2 µM				
CC(=O)NS(=O)(=O)c1ccc(CC(Cc2ccc(C(F)(F)P(=O)(O)O)cc2)(C(=O)OCc2ccccc2)C(=O)OCc2ccccc2)cc1	25	0.09 µM	1.7 µM				
O=C(c1ccccc1)C(Cc1ccc(C(F)(F)P(=O)(O)O)c(Br)c1)c1ccccc1 (configuration not stated)	> 50		1.22 µM	13	35		
O=C(c1ccccc1)C(Cc1ccc(C(F)(F)P(=O)(O)O)cc1)(Cc1ccc(C(F)(F)P(=O)(O)O)cc1)c1ccccc1	> 50	0.06 µM and 0.19 µM	0.58 µM and 1.5 µM				
O=C(c1ccccc1)C(Cc1ccc(C(F)(F)P(=O)(O)O)c(-c2ccccc2)c1)c1ccccc1 (configuration not stated)	> 50	16 µM				Not Active	
O=C(O)c1ccc(CC(Cc2ccc(C(F)(F)P(=O)(O)O)cc2)(C(=O)c2ccccc2)c2ccccc2)cc1 (configuration not stated)	> 50	0.8 µM	6.63 µM				
COC(=O)C(Cc1ccc(C(F)(F)P(=O)(O)O)cc1)(Cc1ccc(C(F)(F)P(=O)(O)O)cc1)C(=O)OCc1ccccc1	> 50	0.19 µM	1 µM				< 30
CS(=O)(=O)c1ccc(CC(Cc2ccc(C(F)(F)P(=O)(O)O)cc2)(C(=O)OCc2ccccc2)C(=O)OCc2ccccc2)cc1	> 50	0.94 µM	7.2 µM				
O=P(O)(O)C(F)(F)c1ccc(CC(Cc2ccc(C(F)(F)P(=O)(O)O)cc2)(OCc2ccccc2)OCc2ccccc2)cc1	> 50	0.16 µM	1.3 µM				
